From the NIST ThermoML archive (doi:10.1021/acs.jced.8b00554)

Assay: xn = mol fraction of the nth substance listed
Conditions: Liquid, Vibrating tube method

CCCCCCCC [octane] + CCCO
mass density [kg/m3]
Conditions	323.15 K	333.15 K
100 kPa, x2 = 0.1631	–	675.2
100 kPa, x2 = 0.2111	–	677.49
100 kPa, x2 = 0.3158	–	683.44
100 kPa, x2 = 0.4411	–	692.56
100 kPa, x2 = 0.7301	–	721.13
100 kPa, x2 = 0.8823	–	744.98
1000 kPa, x2 = 0.2111	–	678.54
1000 kPa, x2 = 0.3158	–	684.58
1010 kPa, x2 = 0.1631	–	676.35
1010 kPa, x2 = 0.4411	–	694.32
1010 kPa, x2 = 0.8823	–	745.82
1020 kPa, x2 = 0.7301	–	722.21
2010 kPa, x2 = 0.1631	–	677.44
2010 kPa, x2 = 0.2111	–	679.63
2010 kPa, x2 = 0.3158	–	685.64
2010 kPa, x2 = 0.4411	–	695.36
2010 kPa, x2 = 0.7301	–	723.26
2010 kPa, x2 = 0.8823	–	746.82
3000 kPa, x2 = 0.2111	–	680.7
3000 kPa, x2 = 0.3158	–	686.7
3010 kPa, x2 = 0.1631	–	678.49
3010 kPa, x2 = 0.7301	–	724.3
3020 kPa, x2 = 0.4411	–	696.43
3020 kPa, x2 = 0.8823	–	747.84
4000 kPa, x2 = 0.3158	–	687.78
4000 kPa, x2 = 0.4411	–	697.47
4000 kPa, x2 = 0.7301	–	725.32
4010 kPa, x2 = 0.2111	–	681.76
4010 kPa, x2 = 0.8823	–	748.84
4020 kPa, x2 = 0.1631	–	679.56
5000 kPa, x2 = 0.8823	–	749.83
5010 kPa, x2 = 0.2111	–	682.8
5020 kPa, x2 = 0.1631	–	680.6
5020 kPa, x2 = 0.3158	–	688.8
5020 kPa, x2 = 0.4411	–	698.53
5020 kPa, x2 = 0.7301	–	726.33
6000 kPa, x2 = 0.2111	–	683.81
6010 kPa, x2 = 0.3158	–	689.87
6010 kPa, x2 = 0.4411	–	699.54
6010 kPa, x2 = 0.7301	–	727.35
6010 kPa, x2 = 0.8823	–	750.8
6020 kPa, x2 = 0.1631	–	681.62
7000 kPa, x2 = 0.1631	–	682.67
7000 kPa, x2 = 0.2111	–	684.85
7000 kPa, x2 = 0.3158	–	690.9
7010 kPa, x2 = 0.4411	–	700.57
7010 kPa, x2 = 0.8823	–	751.79
7020 kPa, x2 = 0.7301	–	728.39
8000 kPa, x2 = 0.8823	–	752.76
8010 kPa, x2 = 0.1631	–	683.7
8010 kPa, x2 = 0.7301	–	729.39
8020 kPa, x2 = 0.2111	–	685.89
8020 kPa, x2 = 0.3158	–	691.91
8020 kPa, x2 = 0.4411	–	701.57
9000 kPa, x2 = 0.4411	–	702.6
9010 kPa, x2 = 0.1631	–	684.68
9010 kPa, x2 = 0.2111	–	686.89
9010 kPa, x2 = 0.3158	–	692.93
9010 kPa, x2 = 0.7301	–	730.37
9010 kPa, x2 = 0.8823	–	753.69
10000 kPa, x2 = 0.2111	–	687.87
10000 kPa, x2 = 0.8823	–	754.64
10010 kPa, x2 = 0.3158	702.83	693.93
10010 kPa, x2 = 0.4411	711.7	–
10010 kPa, x2 = 0.7301	–	731.35
10010 kPa, x2 = 0.8823	763.66	–
10020 kPa, x2 = 0.1631	–	685.68
10020 kPa, x2 = 0.4411	–	703.57
11000 kPa, x2 = 0.1631	695.13	–
11000 kPa, x2 = 0.3158	–	694.92
11010 kPa, x2 = 0.1631	–	686.66
11010 kPa, x2 = 0.2111	697.62	–
11010 kPa, x2 = 0.3158	703.75	–
11010 kPa, x2 = 0.4411	712.61	704.56
11010 kPa, x2 = 0.7301	741.5	732.33
11010 kPa, x2 = 0.8823	764.53	755.6
11020 kPa, x2 = 0.2111	–	688.87
12000 kPa, x2 = 0.2111	–	689.87
12000 kPa, x2 = 0.3158	704.66	–
12000 kPa, x2 = 0.4411	–	705.54
12010 kPa, x2 = 0.7301	742.41	–
12010 kPa, x2 = 0.8823	765.37	756.54
12020 kPa, x2 = 0.1631	696.03	687.66
12020 kPa, x2 = 0.2111	698.52	–
12020 kPa, x2 = 0.3158	–	695.9
12020 kPa, x2 = 0.4411	713.53	–
12020 kPa, x2 = 0.7301	–	733.28
13000 kPa, x2 = 0.8823	766.25	757.44
13010 kPa, x2 = 0.2111	699.43	–
13010 kPa, x2 = 0.3158	–	696.87
13010 kPa, x2 = 0.4411	714.42	–
13010 kPa, x2 = 0.7301	743.29	–
13020 kPa, x2 = 0.1631	696.94	688.62
13020 kPa, x2 = 0.2111	–	690.84
13020 kPa, x2 = 0.3158	705.56	–
13020 kPa, x2 = 0.4411	–	706.46
13020 kPa, x2 = 0.7301	–	734.24
14010 kPa, x2 = 0.1631	697.82	–
14010 kPa, x2 = 0.2111	700.32	691.78
14010 kPa, x2 = 0.3158	706.45	697.84
14010 kPa, x2 = 0.4411	715.31	707.42
14010 kPa, x2 = 0.8823	767.11	758.35
14020 kPa, x2 = 0.1631	–	689.54
14020 kPa, x2 = 0.7301	744.18	735.17
15000 kPa, x2 = 0.1631	–	690.49
15000 kPa, x2 = 0.2111	–	692.73
15000 kPa, x2 = 0.7301	745.04	–
15000 kPa, x2 = 0.8823	767.94	–
15010 kPa, x2 = 0.1631	698.72	–
15010 kPa, x2 = 0.2111	701.21	–
15010 kPa, x2 = 0.4411	–	708.36
15020 kPa, x2 = 0.3158	707.35	698.76
15020 kPa, x2 = 0.4411	716.17	–
15020 kPa, x2 = 0.7301	–	736.09
15020 kPa, x2 = 0.8823	–	759.26
16000 kPa, x2 = 0.1631	–	691.42
16000 kPa, x2 = 0.3158	708.22	–
16000 kPa, x2 = 0.4411	–	709.26
16000 kPa, x2 = 0.7301	745.87	–
16010 kPa, x2 = 0.1631	699.58	–
16010 kPa, x2 = 0.2111	–	693.66
16010 kPa, x2 = 0.3158	–	699.72
16010 kPa, x2 = 0.4411	717.04	–
16010 kPa, x2 = 0.8823	768.77	760.14
16020 kPa, x2 = 0.2111	702.08	–
16020 kPa, x2 = 0.7301	–	737.02
17000 kPa, x2 = 0.1631	700.41	–
17010 kPa, x2 = 0.2111	702.95	694.6
17010 kPa, x2 = 0.3158	709.05	700.63
17010 kPa, x2 = 0.4411	717.88	710.16
17010 kPa, x2 = 0.7301	–	737.93
17020 kPa, x2 = 0.1631	–	692.33
17020 kPa, x2 = 0.7301	746.73	–
17020 kPa, x2 = 0.8823	769.6	761.01
18000 kPa, x2 = 0.1631	701.27	693.25
18000 kPa, x2 = 0.2111	703.77	–
18010 kPa, x2 = 0.3158	709.93	701.51
18010 kPa, x2 = 0.4411	718.73	711.06
18010 kPa, x2 = 0.7301	747.56	738.78
18010 kPa, x2 = 0.8823	770.4	761.87
18020 kPa, x2 = 0.2111	–	695.49
19000 kPa, x2 = 0.1631	–	694.12
19000 kPa, x2 = 0.3158	–	702.41
19000 kPa, x2 = 0.7301	–	739.68
19000 kPa, x2 = 0.8823	–	762.72
19010 kPa, x2 = 0.1631	702.08	–
19010 kPa, x2 = 0.2111	704.61	696.36
19010 kPa, x2 = 0.3158	710.75	–
19010 kPa, x2 = 0.4411	719.58	–
19010 kPa, x2 = 0.7301	748.4	–
19020 kPa, x2 = 0.4411	–	711.94
19020 kPa, x2 = 0.8823	771.2	–
20000 kPa, x2 = 0.1631	–	694.96
20000 kPa, x2 = 0.2111	–	697.38
20010 kPa, x2 = 0.1631	702.9	–
20010 kPa, x2 = 0.2111	705.43	–
20010 kPa, x2 = 0.3158	–	703.29
20010 kPa, x2 = 0.4411	720.41	–
20010 kPa, x2 = 0.7301	749.2	740.54
20010 kPa, x2 = 0.8823	772.02	763.55
20020 kPa, x2 = 0.3158	711.56	–
20020 kPa, x2 = 0.4411	–	711.91
